Data as given in the supplement of paper PMC10307832.

Tests used:
Experiment in all cases: relative viability (nuclei count vs DMSO), 5 days (fraction); higher = more cells survive
HCC-44 = tested on: HCC-44
How it was run: (§1)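 Lung cancer cell lines, seeded in 1536-well plates, were treated the following day by pin tool with a single drug or with five library-drug doses (not always all listed) in √10 steps on top of a fixed anchor-drug dose. Cells were fixed and nuclei stained in one step after 5 days, and nuclei were counted. Relative viability is the nuclei count for treated wells divided by that for vehicle wells, reported as medians of duplicate plates.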

HCC-827 = tested on: HCC-827
How it was run: as §1

NCI-H650 = tested on: NCI-H650
How it was run: as §1

EKVX = tested on: EKVX
How it was run: as §1

SW 1573 = tested on: SW 1573
How it was run: as §1

NCI-H1975 = tested on: NCI-H1975
How it was run: as §1

NCI-H1666 = tested on: NCI-H1666
How it was run: as §1

H3255 = tested on: H3255
How it was run: as §1

NCI-H2085 = tested on: NCI-H2085
How it was run: as §1

COR-L 105 = tested on: COR-L 105
How it was run: as §1

LU99A = tested on: LU99A
How it was run: as §1

BEN = tested on: BEN
How it was run: as §1

NCI-H2170 = tested on: NCI-H2170
How it was run: as §1

201T = tested on: 201T
How it was run: as §1

NCI-H1437 = tested on: NCI-H1437
How it was run: as §1

PC-3 [JPC-3] = tested on: PC-3 [JPC-3]
How it was run: as §1

NCI-H2087 = tested on: NCI-H2087
How it was run: as §1

LCLC-97TM1 = tested on: LCLC-97TM1
How it was run: as §1

EPLC-272H = tested on: EPLC-272H
How it was run: as §1

NCI-H647 = tested on: NCI-H647
How it was run: as §1

LOU-NH91 = tested on: LOU-NH91
How it was run: as §1

COc1nc(C)cnc1NS(=O)(=O)c1cccnc1-c1ccc(-c2nnco2)cc1 [Zibotentan] + CS(=O)(=O)N1CCN(Cc2cc3nc(-c4cccc5[nH]ncc45)nc(N4CCOCC4)c3s2)CC1 [Pictilisib] (partner 1 µM)
relative viability (HCC-44; first compound 0.08 µM): 0.591
relative viability (HCC-44; first compound 0.253 µM): 0.625
relative viability (HCC-44; first compound 0.8 µM): 0.607
relative viability (HCC-44; first compound 2.53 µM): 0.784
relative viability (HCC-827; first compound 0.08 µM): 0.95
relative viability (HCC-827; first compound 0.253 µM): 0.846
relative viability (HCC-827; first compound 0.8 µM): 0.964
relative viability (HCC-827; first compound 2.53 µM): 0.956
relative viability (NCI-H650; first compound 0.08 µM): 0.921
relative viability (NCI-H650; first compound 0.253 µM): 0.773
relative viability (NCI-H650; first compound 0.8 µM): 0.743
relative viability (NCI-H650; first compound 2.53 µM): 0.821
relative viability (EKVX; first compound 0.08 µM): 0.465
relative viability (EKVX; first compound 0.253 µM): 0.451
relative viability (EKVX; first compound 0.8 µM): 0.439
relative viability (EKVX; first compound 2.53 µM): 0.453
relative viability (SW 1573; first compound 0.08 µM): 0.53
relative viability (SW 1573; first compound 0.253 µM): 0.533
relative viability (SW 1573; first compound 0.8 µM): 0.557
relative viability (SW 1573; first compound 2.53 µM): 0.478
relative viability (NCI-H1975; first compound 0.08 µM): 0.311
relative viability (NCI-H1975; first compound 0.253 µM): 0.262
relative viability (NCI-H1975; first compound 0.8 µM): 0.293
relative viability (NCI-H1975; first compound 2.53 µM): 0.299
relative viability (NCI-H1666; first compound 0.08 µM): 0.553
relative viability (NCI-H1666; first compound 0.253 µM): 0.361
relative viability (NCI-H1666; first compound 0.8 µM): 0.467
relative viability (NCI-H1666; first compound 2.53 µM): 0.429
relative viability (H3255; first compound 0.08 µM): 0.467
relative viability (H3255; first compound 0.253 µM): 0.485
relative viability (H3255; first compound 0.8 µM): 0.467
relative viability (H3255; first compound 2.53 µM): 0.549
relative viability (NCI-H2085; first compound 0.08 µM): 0.477
relative viability (NCI-H2085; first compound 0.253 µM): 0.495
relative viability (NCI-H2085; first compound 0.8 µM): 0.477
relative viability (NCI-H2085; first compound 2.53 µM): 0.517
relative viability (COR-L 105; first compound 0.08 µM): 0.523
relative viability (COR-L 105; first compound 0.253 µM): 0.357
relative viability (COR-L 105; first compound 0.8 µM): 0.477
relative viability (COR-L 105; first compound 2.53 µM): 0.502
relative viability (LU99A; first compound 0.08 µM): 0.362
relative viability (LU99A; first compound 0.253 µM): 0.314
relative viability (LU99A; first compound 0.8 µM): 0.343
relative viability (LU99A; first compound 2.53 µM): 0.371
relative viability (BEN; first compound 0.08 µM): 0.652
relative viability (BEN; first compound 0.253 µM): 0.448
relative viability (BEN; first compound 0.8 µM): 0.55
relative viability (BEN; first compound 2.53 µM): 0.552
relative viability (NCI-H2170; first compound 0.08 µM): 0.282
relative viability (NCI-H2170; first compound 0.253 µM): 0.295
relative viability (NCI-H2170; first compound 0.8 µM): 0.316
relative viability (NCI-H2170; first compound 2.53 µM): 0.368
relative viability (201T; first compound 0.08 µM): 0.725
relative viability (201T; first compound 0.253 µM): 0.599
relative viability (201T; first compound 0.8 µM): 0.628
relative viability (201T; first compound 2.53 µM): 0.711
relative viability (NCI-H1437; first compound 0.08 µM): 0.462
relative viability (NCI-H1437; first compound 0.253 µM): 0.334
relative viability (NCI-H1437; first compound 0.8 µM): 0.366
relative viability (NCI-H1437; first compound 2.53 µM): 0.582
relative viability (PC-3 [JPC-3]; first compound 0.08 µM): 0.756
relative viability (PC-3 [JPC-3]; first compound 0.253 µM): 0.717
relative viability (PC-3 [JPC-3]; first compound 0.8 µM): 0.647
relative viability (PC-3 [JPC-3]; first compound 2.53 µM): 0.781
relative viability (NCI-H2087; first compound 0.08 µM): 0.881
relative viability (NCI-H2087; first compound 0.253 µM): 0.834
relative viability (NCI-H2087; first compound 0.8 µM): 1.01
relative viability (NCI-H2087; first compound 2.53 µM): 0.954
relative viability (LCLC-97TM1; first compound 0.08 µM): 0.214
relative viability (LCLC-97TM1; first compound 0.253 µM): 0.167
relative viability (LCLC-97TM1; first compound 0.8 µM): 0.176
relative viability (LCLC-97TM1; first compound 2.53 µM): 0.176
relative viability (EPLC-272H; first compound 0.08 µM): 0.363
relative viability (EPLC-272H; first compound 0.253 µM): 0.289
relative viability (EPLC-272H; first compound 0.8 µM): 0.239
relative viability (EPLC-272H; first compound 2.53 µM): 0.297
relative viability (NCI-H647; first compound 0.08 µM): 0.391
relative viability (NCI-H647; first compound 0.253 µM): 0.355
relative viability (NCI-H647; first compound 0.8 µM): 0.41
relative viability (NCI-H647; first compound 2.53 µM): 0.388
relative viability (LOU-NH91; first compound 0.08 µM): 0.497
relative viability (LOU-NH91; first compound 0.253 µM): 0.468
relative viability (LOU-NH91; first compound 0.8 µM): 0.515
relative viability (LOU-NH91; first compound 2.53 µM): 0.54
